Assay results: US11261174B2, “Pyrazole O-linked carbamoyl cyclohexyl acids as LPA antagonists” (BRISTOL-MYERS SQUIBB COMPANY, priority 2017, dated 2022)

Target: LPA1 (Homo sapiens, UniProt Q92633)
Test: LPA1 functional antagonist assay (LPA-induced calcium flux)
Type: cell-based
Design: expressed in transfected cells; host or cells: Chinese hamster ovary (CHO) cells
Conditions: CHO cells overexpressing human LPA1; calcium flux induced by 10 nM LPA; read-out: hLPA1 IC50
Method: The effectiveness of compounds of the present invention as LPA1 inhibitors can be determined in an LPA1 functional antagonist assay as follows:
Chinese hamster ovary cells overexpressing human LPA1 were plated overnight (15,000 cells/well) in poly-D-lysine coated 384-well microplates (Greiner bio-one, Cat #781946) in DMEM/F12 medium (Gibco, Cat #11039). Following overnight culture, cells were loaded with calcium indicator dye (AAT Bioquest Inc, Cat #34601) for 30 minutes at 37° C. The cells were then equilibrated to room temperature for 30 minutes before the assay. Test compounds solubilized in DMSO were transferred to 384 well non-binding surface plates (Corning, Cat #3575) using the Labcyte Echo acoustic dispense and diluted with assay buffer [1×HBSS with calcium/magnesium (Gibco Cat #14025-092), 20 mM HEPES (Gibco Cat #15630-080) and 0.1% fatty acid free BSA (Sigma Cat # A9205)] to a final concentration of 0.5% DMSO. Diluted compounds were added to the cells by FDSS6000 (Hamamatsu) at final concentrations ranging from 0.08 nM to 5 μM. and were then incubated for 20 min at room temperature at which time LPA (Avanti Polar Lipids Cat #857130C) was added at final concentrations of 10 nM to stimulate the cells. […] IC50 values were determined by fitting data to a 4-parameter logistic equation (GraphPad Prism, San Diego Calif.).

LPA1, sequence (Q92633 whole entry): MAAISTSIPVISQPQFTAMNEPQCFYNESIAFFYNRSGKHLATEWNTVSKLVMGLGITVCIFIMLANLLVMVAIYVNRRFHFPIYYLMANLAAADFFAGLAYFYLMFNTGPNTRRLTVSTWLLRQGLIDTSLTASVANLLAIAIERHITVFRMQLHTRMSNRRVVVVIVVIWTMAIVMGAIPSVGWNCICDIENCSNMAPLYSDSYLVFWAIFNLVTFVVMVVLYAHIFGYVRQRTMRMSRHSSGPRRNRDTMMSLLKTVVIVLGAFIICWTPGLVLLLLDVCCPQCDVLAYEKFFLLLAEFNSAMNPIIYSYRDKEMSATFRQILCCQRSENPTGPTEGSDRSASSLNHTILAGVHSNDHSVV

Structure (SMILES) | IC50
CC(C)CCN(C)C(=O)OCc1c(-c2ccc(O[C@H]3CCC[C@H](C(=O)O)C3)cn2)cnn1C [Example 33] | 23 nM
Cc1nc(-c2cnn(C)c2COC(=O)N(C)C2CCCC2)ccc1O[C@H]1CCC[C@H](C(=O)O)C1 [Example 5] | 30 nM
CCc1nc(-c2cnn(C)c2COC(=O)N(C)CC2CCC2)ncc1O[C@H]1CCC[C@H](C(=O)O)C1 [Example 84] | 13 nM
CC[C@H](C)CN(C)C(=O)OCc1c(-c2ccc(O[C@H]3CCC[C@H](C(=O)O)C3)c(C)n2)cnn1C [Example 11] | 73 nM
CN(C(=O)OCc1c(-c2cnc(O[C@H]3CCC[C@H](C(=O)O)C3)cn2)cnn1C)C1CCCC1 [Example 56] | 18 nM
CN(CC1CCC1)C(=O)OCc1c(-c2ccc(O[C@H]3CCC[C@H](C(=O)O)C3)cc2)cnn1C [Example 52] | 53 nM
Cc1nc(-c2cnn(C)c2COC(=O)N(C)C(C2CC2)C2CC2)ccc1O[C@H]1CCC[C@H](C(=O)O)C1 [Example 23] | 28 nM
CCc1nc(-c2cnn(C)c2COC(=O)N(C)Cc2ccccc2)ncc1O[C@H]1CCC[C@H](C(=O)O)C1 [Example 82] | 79 nM
Cc1nc(-c2cnn(C)c2COC(=O)N(C)C2CCCC2)ncc1O[C@H]1CCC[C@H](C(=O)O)C1 [Example 71] | 115 nM
Cc1nc(-c2cnn(C)c2COC(=O)N(C)CC23CC(C2)C3)ncc1O[C@H]1CCC[C@H](C(=O)O)C1 [Example 77] | 125 nM
CCCCN(C)C(=O)OCc1c(-c2ncc(O[C@H]3CCC[C@H](C(=O)O)C3)c(C)n2)cnn1C [Example 67] | 59 nM
CN(CC1CCC1)C(=O)OCc1c(-c2ccc(O[C@H]3CCC[C@H](C(=O)O)C3)cn2)cnn1C [Example 3] | 48 nM
Cc1cc(-c2cnn(C)c2COC(=O)N(C)C2CCC2)ccc1O[C@H]1CCC[C@H](C(=O)O)C1 [Example 45] | 19 nM
Cc1cc(-c2cnn(C)c2COC(=O)N(C)C(C)C2CCC2)ccc1O[C@H]1CCC[C@H](C(=O)O)C1 (some centres unmarked) [Example 46] | 27 nM
Cc1nc(-c2cnn(C)c2COC(=O)N(C)CCC2CC2)ccc1O[C@H]1CCC[C@H](C(=O)O)C1 [Example 19] | 9 nM
Cc1nc(-c2cnn(C)c2COC(=O)N(C)Cc2ccccc2)ncc1O[C@H]1CCC[C@H](C(=O)O)C1 [Example 72] | 60 nM
CCCC(C)(C)N(C)C(=O)OCc1c(-c2ccc(O[C@@H]3CCC[C@@H](C(=O)O)C3)c(C)n2)cnn1C (racemic) [Example 28] | 140 nM
CN(CCC1CC1)C(=O)OCc1c(-c2ccc(O[C@H]3CCC[C@H](C(=O)O)C3)cc2)cnn1C [Example 63] | 46 nM
CCCCCN(C)C(=O)OCc1c(-c2ncc(O[C@H]3CCC[C@H](C(=O)O)C3)c(C)n2)cnn1C [Example 75] | 82 nM
CN(CCC1CC1)C(=O)OCc1c(-c2ccc(O[C@@H]3CCC[C@@H](C(=O)O)C3)cn2)cnn1C (racemic) [Example 32] | 54 nM
CC(C1CC1)N(C)C(=O)OCc1c(-c2ccc(O[C@H]3CCC[C@H](C(=O)O)C3)cn2)cnn1C (some centres unmarked) [Example 61] | 134 nM
CCCCN(C)C(=O)OCc1c(-c2cnc(O[C@H]3CCC[C@H](C(=O)O)C3)c(C)n2)cnn1C (racemic) [Example 7] | 40 nM
CN(C(=O)OCc1c(-c2ccc(O[C@H]3CCC[C@H](C(=O)O)C3)cc2)cnn1C)C1CCC1 [Example 50] | 70 nM
CCCCN(C)C(=O)OCc1c(-c2ncc(O[C@H]3CCC[C@H](C(=O)O)C3)c(CC)n2)cnn1C [Example 87] | 33 nM
CN(CC1CC1)C(=O)OCc1c(-c2ccc(O[C@H]3CCC[C@H](C(=O)O)C3)cn2)cnn1C [Example 4] | 165 nM

Structure (SMILES) | IC50
CN(CC1CC1)C(=O)OCc1c(-c2ccc(O[C@@H]3CCC[C@@H](C(=O)O)C3)cc2)cnn1C (racemic) [Example 41] | 1760 nM
Cc1nc(-c2cnn(C)c2COC(=O)N(C)C2(C3CC3)CC2)ccc1O[C@H]1CCC[C@H](C(=O)O)C1 [Example 17] | 43 nM
Cc1nc(-c2cnn(C)c2COC(=O)N(C)CC2CC2)ccc1O[C@H]1CCC[C@H](C(=O)O)C1 [Example 25] | 20 nM
Cc1nc(-c2cnn(C)c2COC(=O)N2CC(C)(C)C2)ccc1O[C@H]1CCC[C@H](C(=O)O)C1 [Example 90] | 309 nM
CCCC(C)N(C)C(=O)OCc1c(-c2ccc(O[C@H]3CCC[C@H](C(=O)O)C3)cc2)cnn1C (some centres unmarked) [Example 54] | 87 nM
CN(C(=O)OCc1c(-c2ccc(O[C@H]3CCC[C@H](C(=O)O)C3)cn2)cnn1C)C1CCCC1 [Example 62] | 31 nM
CCC(CC)N(C)C(=O)OCc1c(-c2ccc(O[C@H]3CCC[C@H](C(=O)O)C3)cn2)cnn1C [Example 26] | 30 nM
CN(CC1CC1)C(=O)OCc1c(-c2ccc(O[C@H]3CCC[C@H](C(=O)O)C3)cc2)cnn1C [Example 51] | 399 nM
Cc1nc(-c2cnn(C)c2COC(=O)N(C)CC23CC(F)(C2)C3)ncc1O[C@H]1CCC[C@H](C(=O)O)C1 [Example 76] | 346 nM
CCCN(C)C(=O)OCc1c(-c2ncc(O[C@H]3CCC[C@H](C(=O)O)C3)c(CC)n2)cnn1C [Example 88] | 1260 nM
CN(Cc1ccccc1)C(=O)OCc1c(-c2ccc(O[C@@H]3CCC[C@@H](C(=O)O)C3)cc2)cnn1C [Example 36] | 376 nM
CCCCN(C)C(=O)OCc1c(-c2ccc(O[C@H]3CCC[C@H](C(=O)O)C3)c(C)c2)cnn1C [Example 30] | 5 nM
Cc1nc(-c2cnn(C)c2COC(=O)N(C)CC(C)C)ncc1O[C@H]1CCC[C@H](C(=O)O)C1 [Example 68] | 214 nM
Cc1nc(-c2cnn(C)c2COC(=O)N(C)C[C@@H]2C[C@H]2C)ncc1O[C@H]1CCC[C@H](C(=O)O)C1 [Example 91] | 32 nM
Cc1nc(-c2cnn(C)c2COC(=O)N(C)C2CCCC2)cnc1O[C@H]1CCC[C@H](C(=O)O)C1 [Example 9] | 34 nM
Cc1nc(-c2cnn(C)c2COC(=O)N(C)CC2CC2)ncc1O[C@H]1CCC[C@H](C(=O)O)C1 [Example 69] | 293 nM
Cc1nc(-c2cnn(C)c2COC(=O)N(C)Cc2cccc(F)c2)ccc1O[C@H]1CCC[C@H](C(=O)O)C1 [Example 16] | 8 nM
CCC(C)N(C)C(=O)OCc1c(-c2ccc(O[C@H]3CCC[C@H](C(=O)O)C3)cc2)cnn1C (some centres unmarked) [Example 53] | 86 nM
CC(C1CC1)N(C)C(=O)OCc1c(-c2ccc(O[C@H]3CCC[C@H](C(=O)O)C3)cc2)cnn1C (some centres unmarked) [Example 89] | 23 nM
Cc1nc(-c2cnn(C)c2COC(=O)N(C)Cc2ccccc2)ccc1O[C@H]1CCC[C@H](C(=O)O)C1 [Example 15] | 10 nM
CCC(C)N(C)C(=O)OCc1c(-c2ccc(O[C@H]3CCC[C@H](C(=O)O)C3)cn2)cnn1C (some centres unmarked) [Example 59] | 401 nM
CCc1nc(-c2cnn(C)c2COC(=O)N(C)C2CCCC2)ncc1O[C@H]1CCC[C@H](C(=O)O)C1 [Example 83] | 60 nM
CCCC1(N(C)C(=O)OCc2c(-c3ccc(O[C@H]4CCC[C@H](C(=O)O)C4)c(C)n3)cnn2C)CC1 [Example 18] | 55 nM
Cc1nc(-c2cnn(C)c2COC(=O)N(C)CC2CCC2)ncc1O[C@H]1CCC[C@H](C(=O)O)C1 [Example 80] | 71 nM
CCCN(C)C(=O)OCc1c(-c2ncc(O[C@H]3CCC[C@H](C(=O)O)C3)c(C)n2)cnn1C [Example 66, (1S,3S)-3-((4-Methyl-2-(1-methyl-5-(((methyl(propyl)carbamoyl)oxy)methyl)-1H-pyrazol-4-yl)pyrimidin-5-yl)oxy)cyclohexane-1-carboxylic Acid] | 214 nM
